Laboratory results published in US20110015080A1, “Solution-based methods for RNA expression profiling” (MASSACHUSETTS INSTITUTE OF TECHNOLOGY, priority 2005, published 2011).
Values joined by “and” are separate entries in the source; they are usually repeats but may differ in a detail not shown here. Identical values can stand only once.

Test system: HL60 (human promyelocytic leukemia) cells
Test: LMA-FlexMAP analysis of microtiter well cultures of HL60 cells treated with tretinoin or DMSO, KNN classification
[1] = HL60 cells treated with tretinoin, Experiment 3, replicate samples
[2] = HL60 microtiter plate wells tretinoin40-47 (replicates)

CC1=C(/C=C/C(C)=C/C=C/C(C)=C/C(=O)O)C(C)(C)CCC1 [tretinoin, all-trans-retinoic acid]
FlexMap signal, ACTB (LUA#91) [1]: 2538 and 2604.5 and 452 and 812 and 1191 and 2112.5 and 2760 and 2845 and 2391 and 144.5 | FlexMap signal, GAPDH_3 (LUA#95) [1]: 2330.5 and 2534 and 579 and 1017 and 1438 and 2495.5 and 2680 and 2718 and 2148 and 172 | FlexMap signal, GAPDH_5 (LUA#93) [1]: 1699 and 1739.5 and 261.5 and 439.5 and 741 and 1388 and 1787 and 1865 and 1714 and 97 | FlexMap signal, GAPDH_M (LUA#94) [1]: 1342.5 and 1462 and 221.5 and 396 and 590.5 and 1179.5 and 1602 and 1586 and 1267.5 and 79 | FlexMap signal, NM_000147 (LUA#29) [1]: 987 and 1072 and 95 and 188.5 and 323 and 713 and 1109 and 1156 and 905 and 43 | FlexMap signal, NM_000211 (LUA#39) [1]: 1072 and 1160 and 204.5 and 356 and 501 and 939 and 1215 (2×) and 924.5 and 109 | FlexMap signal, NM_000250 (LUA#87) [1]: 141 and 157 and 46 and 52 and 67 and 115 and 159 and 166 and 131 and 38 | FlexMap signal, NM_000414 (LUA#22) [1]: 384 and 448 and 48 and 74 and 114 and 272.5 and 479 and 477.5 and 378 and 35 | FlexMap signal, NM_000433 (LUA#28) [1]: 454 and 548 and 62 and 105 and 169 and 371.5 and 580.5 and 600.5 and 406 and 32 | FlexMap signal, NM_000584 (LUA#30) [1]: 1878.5 and 1840 and 240 and 426 and 663 and 1369.5 and 1886 and 1908.5 and 1555 and 96.5 | FlexMap signal, NM_000884 (LUA#81) [1]: 670 and 692 and 126 and 209 and 304 and 612 and 794.5 and 804 and 624 and 58 | FlexMap signal, NM_001034 (LUA#67) [1]: 170 and 171 and 42 and 47 and 73 and 122 and 178 and 184 and 155 and 33 | FlexMap signal, NM_001101 (LUA#34) [1]: 2622 and 2644 and 799 and 1279 and 1711 and 2759.5 and 2895 and 2880 and 2335 and 235 | FlexMap signal, NM_001469 (LUA#79) [1]: 988.5 and 1104 and 141.5 and 246.5 and 395 and 731.5 and 1124 and 1134 and 921 and 75.5 | FlexMap signal, NM_001498 (LUA#18) [1]: 397 and 391.5 and 40 and 71 and 121 and 262 and 386 and 382 and 279 and 30 | FlexMap signal, NM_001684 (LUA#23) [1]: 52.5 and 60 (2×) and 30 and 31.5 and 31 and 52 and 66 and 49 and 25 | FlexMap signal, NM_001948 (LUA#84) [1]: 63 and 62 and 34 and 38 (2×) and 50 and 61 and 59 and 54 and 33 | FlexMap signal, NM_002166 (LUA#25) [1]: 169.5 and 207 and 37 and 51 and 74 and 132 and 188.5 and 211 and 170 and 29 | FlexMap signal, NM_002467 (LUA#90) [1]: 571 and 552.5 and 136 and 162 and 239 and 409.5 and 576 and 644 and 527 and 86 | FlexMap signal, NM_002468 (LUA#40) [1]: 367 and 421 and 57.5 and 93 and 132.5 and 303 and 450 and 473.5 and 357 and 36.5 | FlexMap signal, NM_002539 (LUA#74) [1]: 276 and 278.5 and 46 and 74 and 209 and 271 and 323.5 and 225 and 36 | FlexMap signal, NM_002624 (LUA#36) [1]: 1359 and 1343 and 253.5 and 500 and 700.5 and 1234 and 1402 and 1395 and 1167.5 and 79 | FlexMap signal, NM_002664 (LUA#38) [1]: 1922 and 1934 and 383 and 702 and 1051.5 and 1832 and 2052 and 2064 and 1635.5 and 101 | FlexMap signal, NM_002970 (LUA#42) [1]: 1316 and 1443 and 164 and 329 and 528 and 1106 and 1508 and 1570.5 and 1247 and 57 | FlexMap signal, NM_002982 (LUA#45) [1]: 3449 and 3440 and 1175 and 1759 and 2328 and 3359 and 3548 and 3612.5 and 3101 and 373 | FlexMap signal, NM_003132 (LUA#68) [1]: 431 and 428 and 74 and 117.5 and 194 and 367 and 461 and 482 and 344 and 38 | FlexMap signal, NM_003172 (LUA#19) [1]: 208 and 227 and 45 and 68 and 97 and 199 and 234 and 250 and 179 and 33 | FlexMap signal, NM_003332 (LUA#43) [1]: 2312 and 2346.5 and 591 and 1003 and 1446 and 2239 and 2492 and 2467 and 2041 and 177.5 | FlexMap signal, NM_003581 (LUA#62) [1]: 40.5 and 39.5 and 40 (2×) and 36 and 42 and 47 and 46.5 and 46 and 33 | FlexMap signal, NM_003644 (LUA#17) [1]: 181.5 and 53 and 72 and 75.5 and 220 and 238.5 and 179 and 39 | FlexMap signal, NM_003752 (LUA#82) [1]: 116 and 113 and 54 (2×) and 66 and 93 and 105 and 123 and 96 and 41 | FlexMap signal, NM_003879 (LUA#24) [1]: 65 and 69 and 23 and 29 and 36 and 51 and 77 and 76 and 59 and 34 | FlexMap signal, NM_004079 (LUA#21) [1]: 113 and 124 (2×) and 34 and 41 and 53 and 88 and 122 and 121 and 30 | FlexMap signal, NM_004095 (LUA#59) [1]: 169 and 205 and 46 and 66 and 86.5 and 166.5 and 221 and 208.5 and 147 and 36 | FlexMap signal, NM_004106 (LUA#44) [1]: 1458 and 1423 and 235 and 457 and 672 and 1276 and 1500 and 1506 and 1234 and 68 | FlexMap signal, NM_004134 (LUA#76) [1]: 268 and 286 and 47.5 and 67 and 93 and 182 and 284 and 297 and 240 and 36 | FlexMap signal, NM_004152 (LUA#31) [1]: 1845 and 1993 and 319 and 601 and 837 and 1645 and 2020 and 2157.5 and 1685 and 90.5 | FlexMap signal, NM_004526 (LUA#88) [1]: 153.5 and 172 and 43 and 61 and 76.5 and 187.5 and 191 and 138 and 37 | FlexMap signal, NM_004602 (LUA#32) [1]: 255 and 274.5 and 61 and 87.5 and 116 and 185 and 270 and 293 and 288 and 46 | FlexMap signal, NM_004723 (LUA#20) [1]: 281 and 329 and 61 and 105 and 151 and 271.5 and 350 and 352 and 258 and 37 | FlexMap signal, NM_004741 (LUA#89) [1]: 397 and 326 and 70 and 77 and 131 and 204.5 and 315 and 415.5 and 300.5 and 58 | FlexMap signal, NM_004759 (LUA#37) [1]: 242 and 139.5 and 32 and 41 and 60 and 119 and 132.5 and 213 and 159 and 28 | FlexMap signal, NM_005008 (LUA#77) [1]: 242 and 301.5 and 53.5 and 87 and 114 and 239.5 and 315 and 316 and 232 and 41 | FlexMap signal, NM_005375 (LUA#86) [1]: 548 and 553 and 131 and 196 and 334 and 547.5 and 602 and 531 and 86 | FlexMap signal, NM_005566 (LUA#85) [1]: 539.5 and 610.5 and 89 and 117 and 183 and 197.5 and 597 and 632 and 489 and 45 | FlexMap signal, NM_005914 (LUA#60) [1]: 525.5 and 804.5 and 102 and 218.5 and 314 and 594 and 914 and 889 and 716.5 and 44 | FlexMap signal, NM_005915 (LUA#72) [1]: 46 and 42 and 25 and 27 and 30 and 35 and 40 and 37 and 38 and 29 | FlexMap signal, NM_005952 (LUA#66) [1]: 204 and 199 and 43 and 56 and 74 and 143 and 200 and 197.5 and 156 and 34 | FlexMap signal, NM_005980 (LUA#73) [1]: 160 and 157 (2×) and 32 and 43 and 52 and 102.5 and 166 and 132 and 34 | FlexMap signal, NM_006019 (LUA#35) [1]: 810 and 792 and 73 and 140 and 227 and 497 and 747 and 787.5 and 655 and 34 | FlexMap signal, NM_006138 (LUA#56) [1]: 87 and 95 and 37 and 40 and 49 and 67 and 97 and 102.5 and 86 and 38 | FlexMap signal, NM_006432 (LUA#27) [1]: 1364 and 1394 and 190 and 358.5 and 574 and 1118 and 1397.5 and 1403 and 1160 and 68 | FlexMap signal, NM_006452 (LUA#71) [1]: 52 and 60 and 25 and 37 and 37.5 and 43 and 57 and 71 and 44 and 23.5 | FlexMap signal, NM_006985 (LUA#58) [1]: 48 and 59 (2×) and 31 and 32 and 37.5 and 45.5 and 52 and 46.5 and 30 | FlexMap signal, NM_007282 (LUA#16) [1]: 46 and 62.5 and 27 and 29 and 30 and 42 and 53 and 61.5 and 58 and 28 | FlexMap signal, NM_014333 (LUA#26) [1]: 613 and 656.5 and 74 and 128 and 211 and 427 and 674 and 705 and 572 and 41 | FlexMap signal, NM_014366 (LUA#61) [1]: 217 and 294 and 38 and 61 and 89.5 and 191 and 291.5 and 299.5 and 235 and 33.5 | FlexMap signal, NM_014573 (LUA#70) [1]: 138.5 and 144.5 and 40 and 45 and 56 and 93 and 156 and 161.5 and 123 and 38.5 | FlexMap signal, NM_015201 (LUA#57) [1]: 208 and 198 and 40 and 49 and 64 and 139 and 197 and 228 and 156 and 31 | FlexMap signal, NM_018115 (LUA#63) [1]: 1217 and 860.5 and 109.5 and 234 and 409 and 710.5 and 896 and 1206.5 and 927 and 61 | FlexMap signal, NM_018164 (LUA#69) [1]: 148.5 and 149 and 37 and 46 and 67 and 139 and 150 and 156.5 and 133 and 36 | FlexMap signal, NM_018256 (LUA#83) [1]: 638.5 and 688.5 and 178.5 and 177 and 268 and 371 and 633 and 804.5 and 779 and 151 | FlexMap signal, NM_018890 (LUA#33) [1]: 737 and 769 and 82 and 151.5 and 240 and 534.5 and 760 and 762 and 652 and 41 | FlexMap signal, NM_019058 (LUA#75) [1]: 102 and 129 and 37 and 48 and 56 and 90 and 126 and 97 and 34 | FlexMap signal, NM_020117 (LUA#78) [1]: 487 and 502 and 65 and 114 and 184 and 371 and 519 and 543 and 415 and 45 | FlexMap signal, NM_021103 (LUA#41) [1]: 629 and 2096 and 467.5 and 781.5 and 992 and 1953 and 2465.5 and 2408 and 495 and 142 | FlexMap signal, NM_021203 (LUA#80) [1]: 445.5 and 471 and 65 and 109 and 165 and 355 and 480 and 514 and 369 and 46 | FlexMap signal, NM_021974 (LUA#64) [1]: 776 and 891 and 136.5 and 255.5 and 403 and 781.5 and 929 and 940 and 667.5 and 55 | FlexMap signal, NM_024045 (LUA#65) [1]: 112 and 127.5 and 35 and 40 and 57 and 92.5 and 135.5 and 110 and 29 | FlexMap signal, TFRC (LUA#92) [1]: 252 and 255 and 54 and 66 and 90 and 168 and 256 and 272 and 213 and 45 | ACTB LUA#91 FlexMap level [2]: 344 and 2113 and 2976 and 3020 and 2200 and 2601 and 2521 and 1195 | GAPDH_3 LUA#95 FlexMap level [2]: 1659 and 3754 and 4065 and 4240 and 3880 and 3379 and 3353.5 and 1707.5 | GAPDH_5 LUA#93 FlexMap level [2]: 238 and 1501 and 2205.5 and 2064 and 1482 and 1768.5 and 1737 and 843 | GAPDH_M LUA#94 FlexMap level [2]: 642 and 3318 and 3783.5 and 3886 and 3205 and 3303 and 3248 and 1513 | NM_000070 LUA#2 FlexMap level [2]: 84.5 and 400 and 756 and 769.5 and 717.5 and 638.5 and 741 and 490.5 | NM_000147 LUA#29 FlexMap level [2]: 48 and 184 and 276.5 and 330.5 and 274 and 275 and 318 and 288 | NM_000153 LUA#10 FlexMap level [2]: 35 and 90 and 138 (2×) and 150 and 120 and 171.5 and 223 | NM_000211 LUA#39 FlexMap level [2]: 81 and 598.5 and 1229 and 1162.5 and 868 and 1061 and 973 and 440.5 | NM_000250 LUA#87 FlexMap level [2]: 261.5 and 1504 and 2135 and 2243 and 1820 and 2094 and 1863 and 1124 | NM_000414 LUA#22 FlexMap level [2]: 79.5 and 477 and 902 and 920 and 503 and 800 and 838 and 646 | NM_000433 LUA#28 FlexMap level [2]: 53 and 234 and 451.5 and 466 and 318 and 421 and 370.5 and 244.5 | NM_000584 LUA#30 FlexMap level [2]: 45 and 189 and 470 and 461 and 435 and 379 and 597 and 352 | NM_000632 LUA#12 FlexMap level [2]: 60 and 298 and 544 and 994 and 932 and 486 and 500 and 525.5
